Results published in patent US12661405B2, “Protected HDAC (histone deacetylase) inhibitors” (LIGHTOX LIMITED, priority 2021, dated 2026).
Like-named read-outs stand apart in the source and are kept apart here.

What was measured:
HaCaT keratinocytes = experiment: Fluorescein diacetate cellular viability assay; assay type: cell-based; details: Homo sapiens, light or radiation study, read after 24 h
Method: A fluorescein diacetate cellular viability assay measuring the viability of HaCaT keratinocytes in response to treatment with compound 92 without irradiation (no light) and when irradiated (Light) was carried out as follows:
HaCaT keratinocyte cells were seeded in two 96 well plates and incubated for 24 h at 37° C. 5% CO2. The incubating media was removed and compound 92 was added at a range of concentrations, along with a dimethyl sulfoxide (DMSO) control, before the cells were incubated for one hour at 37° C. 5% CO2, whereupon one plate was irradiated at 405 nm for 5 min (72 mW/cm^2). Both plates were then incubated at 37° C. 5% CO2 for 24 h. The media was removed, and cells were washed with 1× phosphate buffered saline (PBS), then fluorescein diacetate (FDA) was added, and the cells were incubated at RT, in the dark, for 10 min. The fluorescein diacetate stain was then removed, and cells were washed with 1× phosphate buffered saline. The plates were read at 485/520 nm to determine cell viability at differing treatment concentrations of compound 92 with and without light exposure.

HDAC enzymes = experiment: Immunofluorescence imaging with anti-acetyl-H3 primary antibody (acetylated H3 histones); assay type: cell-based; details: HaCaT keratinocytes, compound at 5 μM
Method: HaCaT or SCC-4 cells were seeded at 50,000 cells per well in sterile coverslip containing 6-well plates. The next day, cells were treated with the compound of interest for 30 minutes before “Light” treated cells were irradiated. The following day, cells were then fixed using 4% PFA, permeabilised using Triton X-100/Tween 20, blocked in BSA/goat serum (dependent on the antibodies) and stained with primary then secondary antibodies before coverslips were mounted on slides and imaged on a Zeiss LSCM 880.
Immunofluorescence imaging of HaCaT keratinocytes treated with compound 92 (5 μM) and ethanol (EtOH), and co-treated with an anti-acetyl-H3 primary antibody that detects the presence of acetylated H3 histones was carried out as follows:
[…] Cells were washed in phosphate buffered saline then fixed in 4% PFA. Cells were washed again with phosphate buffered saline before blocking and permeabilization with 0.3% triton 100-X/5% goat serum in phosphate buffered saline for 60 min. Cells were then washed with phosphate buffered saline and anti-acetyl-histone 3 antibody was added and incubated overnight at 4° C. Second antibody (Alexa-594 anti-rabbit) was added for 45 min before cells were washed again and mounted for imaging.
This delayed behaviour is indicative of an initial lag phase as compound 92 is enzymatically metabolised to the active form.

SMILES: COC(=O)/C=C/c1ccc(C#Cc2cnc(N3CCN(C(=O)CCCCCCC(=O)NOC(C)=O)CC3)s2)cn1 [compound 92, Methyl (2E)-3-(5-{2-[2-(4-{7-[(acetyloxy)carbamoyl]heptanoyl}piperazin-1-yl)-1,3-thiazol-5-yl]ethynyl}pyridin-2-yl)prop-2-enoate]
- IC50 (HaCaT keratinocytes; 1 h treatment, irradiated at 405 nm for 5 min (72 mW/cm^2), read-out: IC50 cell viability, light activation): 0.69 µM
- IC50 (HaCaT keratinocytes; no irradiation, read-out: IC50 cell viability, without light activation): 5.5 µM
- Acetylated H3 build-up (nuclear ring phenotype) after one hour (HDAC enzymes; one hour): characteristic nuclear ring phenotype
- Acetylated H3 build-up (nuclear ring phenotype) after ten minutes (HDAC enzymes; ten minutes): limited activity
